# According to ChEMBL document CHEMBL1123199, “Synthesis and structure-activity relationships of naftifine-related allylamine antimycotics” (1986):
# Tests used:
# Microsporum canis = experiment: Antifungal activity against Microsporum canis; format: functional
# Aspergillus fumigatus = experiment: Antifungal activity measured against Aspergillus fumigatus; format: functional
# Trichophyton benhamiae = experiment: Antifungal activity measured against Trichophyton mentagrophytes; format: functional, Arthroderma benhamiae
# Sporothrix schenckii = experiment: Antifungal activity measured against Sporothrix schenck ii.; format: functional
# Epidermophyton floccosum = experiment: Antifungal activity against Epidermophyton floccosum.; format: functional
# Candida parapsilosis = experiment: Antifungal activity against Candida parapsilosis.; format: functional; settings: Lodderomyces parapsilosis
SMILES,MIC (Microsporum canis),MIC (Aspergillus fumigatus),MIC (Trichophyton benhamiae),MIC (Sporothrix schenckii),MIC (Epidermophyton floccosum),MIC (Candida parapsilosis)
CN(C/C=C/c1cccn1C)Cc1cccc2ccccc12,50 µg/mL,> 100 µg/mL,25 µg/mL,50 µg/mL,25 µg/mL,> 100 µg/mL
C/C(=C\CN(C)Cc1cccc2ccccc12)c1ccccc1,100 µg/mL,> 100 µg/mL,50 µg/mL,100 µg/mL,100 µg/mL,> 100 µg/mL
CN(CCc1ccccc1)Cc1cccc2ccccc12,100 µg/mL,> 100 µg/mL,12.5 µg/mL,> 100 µg/mL,100 µg/mL,> 100 µg/mL
CN(C/C=C/c1cccc2ccccc12)Cc1cccc2ccccc12,100 µg/mL,> 100 µg/mL,1.6 µg/mL,100 µg/mL,100 µg/mL,> 100 µg/mL
CN(C/C=C/c1ccccc1)CC1=CCCc2ccccc21,≤ 1.6 µg/mL,> 100 µg/mL,≤ 1.6 µg/mL,12.5 µg/mL,≤ 1.6 µg/mL,25 µg/mL
CN(C/C=C/C#N)Cc1cccc2ccccc12,100 µg/mL,> 100 µg/mL,100 µg/mL,> 100 µg/mL,100 µg/mL,> 100 µg/mL
CN(C/C=C/c1ccccc1)Cc1cc2ccccc2c2ccccc12,100 µg/mL,100 µg/mL,100 µg/mL,100 µg/mL,100 µg/mL,100 µg/mL
C(=C\c1ccccc1)/CN(Cc1ccccc1)Cc1cccc2ccccc12,> 100 µg/mL,> 100 µg/mL,> 100 µg/mL,> 100 µg/mL,> 100 µg/mL,> 100 µg/mL
CN(CC(=O)c1ccccc1)Cc1cccc2ccccc12,6.2 µg/mL,> 100 µg/mL,3.1 µg/mL,> 100 µg/mL,12.5 µg/mL,> 100 µg/mL
O=S(=O)(C/C=C/c1ccccc1)Cc1cccc2ccccc12,> 100 µg/mL,> 100 µg/mL,> 100 µg/mL,> 100 µg/mL,> 100 µg/mL,> 100 µg/mL
C/C=C/CN(C)Cc1cccc2ccccc12,> 100 µg/mL,> 100 µg/mL,> 100 µg/mL,> 100 µg/mL,> 100 µg/mL,> 100 µg/mL
COc1ccc2ccccc2c1CN(C)C/C=C/c1ccccc1,100 µg/mL,> 100 µg/mL,50 µg/mL,> 100 µg/mL,50 µg/mL,> 100 µg/mL
CC(/C=C/c1ccccc1)N(C)Cc1cccc2ccccc12 (stereo not given),25 µg/mL,> 100 µg/mL,< 1.6 µg/mL,25 µg/mL,12.5 µg/mL,> 100 µg/mL
[O-][S+](C/C=C/c1ccccc1)Cc1cccc2ccccc12 (stereo not given),> 100 µg/mL,> 100 µg/mL,> 100 µg/mL,> 100 µg/mL,> 100 µg/mL,> 100 µg/mL
C(=C\c1ccccc1)/CSCc1cccc2ccccc12,> 100 µg/mL,> 100 µg/mL,25 µg/mL,> 100 µg/mL,> 100 µg/mL,> 100 µg/mL
CN(Cc1cccc2ccccc12)C(=O)/C=C/c1ccccc1,> 100 µg/mL,> 100 µg/mL,> 100 µg/mL,> 100 µg/mL,> 100 µg/mL,> 100 µg/mL
CN(C/C=C/CO)Cc1cccc2ccccc12,> 100 µg/mL,> 100 µg/mL,> 100 µg/mL,> 100 µg/mL,> 100 µg/mL,> 100 µg/mL
CN(CCC(O)c1ccccc1)Cc1cccc2ccccc12 (stereo not given),> 100 µg/mL,> 100 µg/mL,> 100 µg/mL,> 100 µg/mL,> 100 µg/mL,> 100 µg/mL

SMILES,MIC (Microsporum canis),MIC (Aspergillus fumigatus),MIC (Trichophyton benhamiae),MIC (Sporothrix schenckii),MIC (Epidermophyton floccosum),MIC (Candida parapsilosis)
CN(Cc1cccc2ccccc12)CC1CC1c1ccccc1 (stereo not given),12.5 µg/mL,> 100 µg/mL,12.5 µg/mL,100 µg/mL,25 µg/mL,> 100 µg/mL
C=CCN(C/C=C/c1ccccc1)Cc1cccc2ccccc12,< 1.6 µg/mL,100 µg/mL,< 1.6 µg/mL,6.25 µg/mL,3.1 µg/mL,> 100 µg/mL
CN(C/C=C/c1ccccc1)Cc1c2c(cc3c1CCC3)CCC2,1.6 µg/mL,> 100 µg/mL,1.6 µg/mL,6.25 µg/mL,3.1 µg/mL,> 100 µg/mL
C(=C\c1ccccc1)/CN(C/C=C/c1ccccc1)Cc1cccc2ccccc12,> 100 µg/mL,> 100 µg/mL,> 100 µg/mL,> 100 µg/mL,> 100 µg/mL,> 100 µg/mL
C[N+](C)(C/C=C/c1ccccc1)Cc1cccc2ccccc12.[I-],> 100 µg/mL,> 100 µg/mL,25 µg/mL,> 100 µg/mL,> 100 µg/mL,> 100 µg/mL
C=CCN(C)Cc1cccc2ccccc12,> 100 µg/mL,> 100 µg/mL,> 100 µg/mL,> 100 µg/mL,> 100 µg/mL,–
CN(C/C=C/c1ccco1)Cc1cccc2ccccc12,6.2 µg/mL,> 100 µg/mL,< 1.6 µg/mL,100 µg/mL,6.2 µg/mL,> 100 µg/mL
CN(CCC(=O)c1ccccc1)Cc1cccc2ccccc12,6.2 µg/mL,> 100 µg/mL,6.2 µg/mL,50 µg/mL,6.2 µg/mL,> 100 µg/mL
COc1ccc(/C=C/CN(C)Cc2cccc3ccccc23)cc1,50 µg/mL,> 100 µg/mL,6.2 µg/mL,> 100 µg/mL,50 µg/mL,> 100 µg/mL
CN(C/C=C/c1ccccc1)Cc1coc2ccccc12,1.6 µg/mL,> 100 µg/mL,1.6 µg/mL,100 µg/mL,12.5 µg/mL,25 µg/mL
C(=C\c1ccccc1)/C=N/Cc1cccc2ccccc12,> 100 µg/mL,> 100 µg/mL,100 µg/mL,100 µg/mL,100 µg/mL,> 100 µg/mL
CN(C/C=C/c1ccncc1)Cc1cccc2ccccc12,25 µg/mL,> 100 µg/mL,< 1.6 µg/mL,100 µg/mL,25 µg/mL,> 100 µg/mL
CC(=O)N(C/C=C/c1ccccc1)Cc1cccc2ccccc12,> 100 µg/mL,> 100 µg/mL,> 100 µg/mL,> 100 µg/mL,> 100 µg/mL,> 100 µg/mL
CN(C/C=C/C1CCCCC1)Cc1cccc2ccccc12,12.5 µg/mL,> 100 µg/mL,1.6 µg/mL,> 100 µg/mL,12.5 µg/mL,> 100 µg/mL
C(=C\c1ccccc1)/CNCc1cccc2ccccc12 [N-DEALKYL NAFTIFINE],100 µg/mL,> 100 µg/mL,12.5 µg/mL,100 µg/mL,100 µg/mL,> 100 µg/mL
CN(C/C=C/c1ccccc1)C(c1ccccc1)c1ccccc1,> 100 µg/mL,> 100 µg/mL,> 100 µg/mL,> 100 µg/mL,> 100 µg/mL,> 100 µg/mL
CC(C)N(C/C=C/c1ccccc1)Cc1cccc2ccccc12,3.1 µg/mL,> 100 µg/mL,< 1.6 µg/mL,50 µg/mL,< 1.6 µg/mL,100 µg/mL
CN(C/C=C/C1CC=CCC1)Cc1cccc2ccccc12 (stereo not given),25 µg/mL,> 100 µg/mL,25 µg/mL,100 µg/mL,25 µg/mL,> 100 µg/mL
